This is an account of results in ChEMBL document CHEMBL4130400, “Development of GLUT4-selective antagonists for multiple myeloma therapy” (Eur J Med Chem, 2017).

One may read the IC50 as the concentration at which inhibition is half-maximal.

Series [1] has as its target T1, GLUT1 (solute carrier family 2, facilitated glucose transporter member 1) (Rattus norvegicus, UniProt P11167).
T1 sequence (P11167 whole entry): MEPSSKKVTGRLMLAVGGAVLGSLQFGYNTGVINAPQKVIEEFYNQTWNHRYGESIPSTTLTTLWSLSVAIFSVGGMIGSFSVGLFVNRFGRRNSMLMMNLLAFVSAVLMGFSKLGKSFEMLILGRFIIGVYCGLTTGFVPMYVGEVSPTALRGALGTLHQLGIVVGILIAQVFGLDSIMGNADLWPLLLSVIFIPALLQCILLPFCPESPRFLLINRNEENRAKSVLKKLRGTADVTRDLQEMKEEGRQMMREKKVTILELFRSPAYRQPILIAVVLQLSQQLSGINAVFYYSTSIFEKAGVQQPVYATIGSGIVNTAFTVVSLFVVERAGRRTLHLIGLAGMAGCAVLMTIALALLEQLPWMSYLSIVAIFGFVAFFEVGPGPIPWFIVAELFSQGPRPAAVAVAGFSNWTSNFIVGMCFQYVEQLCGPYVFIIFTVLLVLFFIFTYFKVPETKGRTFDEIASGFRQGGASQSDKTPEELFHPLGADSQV
Nature of the series: Displacement of ATB-BMPA from rat C-terminal 6His/Myc-tagged GLUT1 expressed in HEK293 cell low density microsome assessed as ATB-BMPA binding level at 20 uM preincubated for 10 mins followed by ATB-BMPA addition measured after 10 mins relative to control. Type of series: cell-based. The settings on record: probe ATB-BMPA, read-out: Activity.

For series [2], the target named is T2, Solute carrier family 2, facilitated glucose transporter member 4 (Homo sapiens) (UniProt P14672).
T2 sequence (whole entry): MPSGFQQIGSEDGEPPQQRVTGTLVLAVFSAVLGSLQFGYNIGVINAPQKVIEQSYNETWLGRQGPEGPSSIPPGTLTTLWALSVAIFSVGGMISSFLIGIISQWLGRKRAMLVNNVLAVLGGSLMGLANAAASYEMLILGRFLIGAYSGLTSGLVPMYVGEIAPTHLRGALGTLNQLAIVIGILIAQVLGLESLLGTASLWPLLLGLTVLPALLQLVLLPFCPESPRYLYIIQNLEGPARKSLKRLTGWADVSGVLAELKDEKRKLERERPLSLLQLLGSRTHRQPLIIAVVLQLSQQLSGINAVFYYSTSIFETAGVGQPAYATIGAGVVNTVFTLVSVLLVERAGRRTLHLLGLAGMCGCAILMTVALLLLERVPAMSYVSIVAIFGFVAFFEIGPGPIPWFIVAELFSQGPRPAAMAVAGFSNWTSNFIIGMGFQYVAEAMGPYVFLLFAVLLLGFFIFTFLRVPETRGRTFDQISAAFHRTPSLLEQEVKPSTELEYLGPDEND
Nature of the series: Antagonist activity at GLUT4 in human MM1S cells assessed as increase in sensitivity to dexamethasone-induced cytotoxicity by measuring cell death at 10 uM after 72 hrs by CellTiter-Glo assay. In kind it is cell-based. Background: In ATP-based viability assays light output follows the ATP content of the culture.

Series [3] has as its system Bone marrow cell. Nature of the series: Cytotoxicity in multiple myeloma patient derived CD38(-)/CD45(-) non-myeloma bone marrow cells at 10 uM in presence of dexamethasone incubated for 48 hrs by CellTiter-Glo assay. Type of series: cell-based. The conditions noted are these: human.
The target of series [4] is T2, Solute carrier family 2, facilitated glucose transporter member 4 (Homo sapiens). Nature of the series: Antagonist activity at GLUT4 in human JJN3 cells assessed as reduction in [3H]2-deoxy-D-glucose uptake preincubated for 5 to 6 mins followed by [3H]2-deoxy-D-glucose addition measured after 4 to 6 mins. In kind it is cell-based.
The test system of series [5] is KMS-11. Nature of the series: Cytotoxicity against human KMS11 cells after 72 hrs by AnnexinV/DAPI staining-based flow cytometric analysis. Type of series: functional, cell-based. In general terms: In flow cytometry, cells or beads pass a laser one at a time.
The test system of series [6] is Bone marrow cell. Nature of the series: Cytotoxicity in multiple myeloma patient derived CD38(-)/CD45(-) non-myeloma bone marrow cells at 10 uM incubated for 48 hrs by CellTiter-Glo assay. In kind it is cell-based. The conditions noted are these: human.
In series [7] the test system is KMS-11. Nature of the series: Antiproliferative activity against human KMS11 cells over-expressing GFP after 72 hrs by CellTiter-Glo assay. In kind it is functional, cell-based. The conditions noted are these: KMS-11, 72 h.
Series [8] concerns the target T3, Solute carrier family 2, facilitated glucose transporter member 1 (Homo sapiens, UniProt P11166).
T3 sequence (P11166 whole entry): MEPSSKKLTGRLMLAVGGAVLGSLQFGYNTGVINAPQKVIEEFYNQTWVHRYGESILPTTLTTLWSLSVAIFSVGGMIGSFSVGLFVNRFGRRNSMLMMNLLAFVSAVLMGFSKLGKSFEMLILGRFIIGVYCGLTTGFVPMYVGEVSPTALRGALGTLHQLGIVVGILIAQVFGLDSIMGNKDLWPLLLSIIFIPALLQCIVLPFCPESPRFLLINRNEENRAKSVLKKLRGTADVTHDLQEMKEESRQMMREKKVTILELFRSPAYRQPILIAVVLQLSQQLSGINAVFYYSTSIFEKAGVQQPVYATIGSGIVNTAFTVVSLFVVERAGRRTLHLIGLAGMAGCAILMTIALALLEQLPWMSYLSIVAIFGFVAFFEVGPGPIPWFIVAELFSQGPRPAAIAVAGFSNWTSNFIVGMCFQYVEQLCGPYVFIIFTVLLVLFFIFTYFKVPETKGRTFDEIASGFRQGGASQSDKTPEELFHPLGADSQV
Nature of the series: Antagonist activity at human GLUT1 expressed in HEK293 cells transfected with GLUT1 shRNA assessed as inhibition of [3H]2-deoxy-D-glucose uptake preincubated for 5 mins followed by [3H]2-deoxy-D-glucose addition and measured after 6 mins. In kind it is cell-based.

Series [9] has as its target T2, Solute carrier family 2, facilitated glucose transporter member 4 (Homo sapiens). Nature of the series: Antagonist activity at GLUT4 in human L363 cells assessed as reduction in MCL-1 protein expression at 15 uM after 18 hrs by immunoblot analysis. In kind it is cell-based.
The target is the same in series [10]. Nature of the series: Antagonist activity at GLUT4 in human MM1S cells assessed as increase in sensitivity to melphalan-induced cytotoxicity by measuring cell death at 10 uM after 72 hrs by CellTiter-Glo assay. Type of series: cell-based.
Series [11] relates to Bone marrow cell. Nature of the series: Cytotoxicity in multiple myeloma patient derived CD38(-)/CD45(-) non-myeloma bone marrow cells at 10 uM in presence of ABT-199 incubated for 48 hrs by CellTiter-Glo assay. Type of series: cell-based. The settings on record: human.

Calls of active or inactive are those of the source. No cut-off for these calls is given here.

For the compound `COc1ccc(CC(=O)N(Cc2ccncc2)Cc2cccc(OCCc3ccc(F)cc3)c2)cc1`, the activity at 10 min, 20 µM in [1] was 35%. In addition, the inhibition entry in [2], in [4] and in [9] was “Active” in each case. For the same compound, the Activity entry with Bone marrow cell [3], with Bone marrow cell [6] and in the series with Bone marrow cell [11] was “Non-Toxic” in each case. The Activity entry (in the series on KMS-11 [5]; in series [10]) was “Active” in each case. The IC50 in the series on KMS-11 [7] was 13.4 µM; in [8] it was over 100 µM.
